From patent publication US8722096B2, “Lipoic acid pellets” (Aptalis Pharma Limited, priority 2006, dated 2014)

Columns and labels:
[1] = Stability of lipoic acid in ethanol/phosphate buffer solutions; format: physicochemical; conditions: ethanol/phosphate buffer 50 mM pH 6.8, 80:20 to 90:10; room temperature, protected from light
Experimental: In case the application in the solvent form is chosen, for example ethanol, acetone or other solvents or their mixtures thereof can be used. Also other mixtures of organic solvents with buffer solutions can be used, for example mixtures of ethanol and phosphate buffers. These mixtures can be composed by ethanol/phosphate buffer 50 mM pH:6.8 in proportions ranging from 80:20 to 90:10. In these solutions, lipoic acid is stable for at least 24 hours if stored at room temperature and protected from light. Lipoic acid is dissolved in these solvents at an optimal concentration ranging from 20 to 30% w/w, depending on the type of solvent or solvent mixture used. Application of the lipoic acid solution on the core is performed by wetting and subsequent evaporation of the solvent in presence of air at a temperature lower than 40° C., preferably ranging between 36 and 38° C. This procedure yields active cores with a low content of residual solvents.

[2] = gives polymerization products; cited from earlier work

SMILES: O=C(O)CCCCC1CCSS1 (centres unmarked) [lipoic acid, 1,2-dithiolan-3-pentanoic acid]
- time for which lipoic acid is stable in solution [1]: at least 24 hours
- stability under environmental conditions [2]: unstable under various environmental conditions
